In patent US4165371A, “1,2,3,4,5,6-Hexahydro-1,6-methano-3-benzazocines” (priority 1976, dated 1979):

Tests used:
[1] = format: in vivo; settings: mouse hot plate, intravenous; for ED50: range in parentheses
Protocol: (c) The presence of certain N-substituents would confer antagonist activity on members of this new ring system, Tests for analgesic activity were conducted using intravenous administration in the reliable Eddy mouse hot plate assay described in J. Pharmacol. Exp. Ther. […] (1953). The results are set forth in Table 1, together with the activities of morphine and codeine reported as evaluation standards.

[2] = tested on: Non-withdrawn, morphine dependent monkeys; test: Attempted precipitation of abstinence in non-withdrawn, morphine-dependent monkeys (NW); format: in vivo, monkey; settings: for Effects, precipitation of abstinence signs (NW): 2 monkeys
[3] = tested on: morphine dependent monkeys; test: Physical dependence liability testing, overall evaluation; format: in vivo, monkey; settings: for Estimated Physical Dependence Capacity: at doses tested
Protocol: (§1) Physical Dependence Liability testing was conducted on Compounds A, B, C and F of Table 1. For determining Single Dose Suppression (SDS) data monkeys, physically dependent on 3.0 mg/kg of morphine sulfte q6H, were withdrawn until abstinence signs of intermediate severity were present (12-14 hours). The coded drug was injected at this time by persons other than the observer. The monkeys were graded just prior to injection and at intervals of 1/2, 1, 2, 3, 4, 5 and 6 hours after injection. Grades were based on withdrawal intensity or opiate-like depression and side effects, if present. The results are shown in Tables 2 through 5 together with evaluations thereof by Dr. Henry H. Swain at the University of Michigan. Dosages are in mg/kg.

[4] = tested on: monkeys, physically dependent on morphine; test: Physical dependence liability: Single Dose Suppression (SDS) in withdrawn morphine-dependent monkeys; format: in vivo, monkey; settings: 2 monkeys
Protocol: as §1

[5] = tested on: Normal monkeys (not dependent on morphine); test: Normal monkeys (not dependent on morphine): attempt to elicit the narcotic syndrome; format: in vivo, monkey

Row | SMILES | duration [1] | onset [1] | peak [1] | ED50 [1] | Estimated Physical Dependence Capacity [3] | Effects, Single Dose Suppression ([4]; 2.0 mg/kg) | further results
1 | CN1CCC2CC(C1)c1ccccc12 (centres unmarked) [B] | 104 min | 3.2 min | 20.3 min | 4.2 (2.6-6.7) mg/kg | Little or none at doses tested | No apparent effect | morphine antagonism [2]: not morphine antagonists; precipitation of the morphine abstinence syndrome [2]: no such result was observed; Effects, precipitation of abstinence signs (NW) ([2]; 4.0 mg/kg): No obvious effect; Effects, precipitation of abstinence signs (NW) ([2]; 8.0 mg/kg): No obvious effect; Effects, Single Dose Suppression ([4]; 4.0 mg/kg): No obvious effect; narcotic signs [5]: no obvious narcotic signs were observed
2 | c1ccc2c(c1)C1CCN(CC3CC3)CC2C1 (centres unmarked) [C] | – | – | – | – | None | – | Remarks: direct effects / convulsions ([3]; doses tested): The drug causes convulsions; Dose estimated to be equivalent to 3.0 mg/kg of morphine sulfate ([3]; evaluation in words): Not morphine-like; Effects, Single Dose Suppression ([4]; 5.0 mg/kg): No obvious effect; Effects, Single Dose Suppression ([4]; 10.0 mg/kg): No obvious effect
3 | c1ccc2c(c1)C1CCNCC2C1 (centres unmarked) [A] | 97.5 min | 3.3 min | 18.0 min | 4.9 (3.6-6.5) mg/kg | Not morphine-like | No apparent effect | morphine antagonism [2]: not morphine antagonists; precipitation of the morphine abstinence syndrome [2]: no such result was observed; narcotic signs [5]: no obvious narcotic signs were observed; Narcotic signs in normals ([5]; 8.0 mg/kg, 2 monkeys): No obvious narcotic signs
4 | CCCN1CCC2CC(C1)c1ccccc12 (centres unmarked) | 120 min | 3.6 min | 32.1 min | 16.2 (11.7-22.4) mg/kg | – | – | –
5 | C=CCN1CCC2CC(C1)c1ccccc12 (centres unmarked) [F] | 119 min | 3.2 min | 16.3 min | 19.4 (13.1-28.7) mg/kg | None | No apparent effect | Effects, Single Dose Suppression ([4]; 1.0 mg/kg): No apparent effect; Effects, Single Dose Suppression ([4]; 4.0 mg/kg): No apparent effect; Effects, Single Dose Suppression ([4]; 8.0 mg/kg): No apparent effect; Effects, Single Dose Suppression ([4]; 16.0 mg/kg): No obvious effect
6 | c1ccc(CCN2CCC3CC(C2)c2ccccc23)cc1 (centres unmarked) | 123 min | 4.7 min | 25.6 min | 8.8 (6.2-12.5) mg/kg | – | – | –
7 | CN1CC[C@]23c4c5ccc(O)c4O[C@H]2[C@@H](O)C=C[C@H]3[C@H]1C5 [morphine, reference compound] | – | – | – | 1.2 (0.9-1.3) mg/kg | – | – | –
8 | COc1ccc2c3c1O[C@H]1[C@@H](O)C=C[C@H]4[C@@H](C2)N(C)CC[C@@]341 [codeine, reference compound] | – | – | – | 7.5 (6.8-8.3) mg/kg | – | – | –
